Assays:
Type in all cases: cell-based, human
[1] = tested on: heparin sulfate expression in ES2 cells; assay: Microarray gene expression, Table 10; settings: for HSPG2 heparan sulfate proteoglycan 2 (perlecan), gene expression ratio to no drug control (D): probe 201655_s_at; for HS2ST1 heparan sulfate 2-O-sulfotransferase 1, gene expression ratio to no drug control (D): probe 203284_s_at; for HPSE Heparanase, gene expression ratio to no drug control (D): probe 219403_s_at
Protocol: (§1) Y/D is the ratio (in folds) of gene expression in cells treated with compound Y as compared with those of the no drug control (D),
(§2) YM/D is the ratio of gene expression in cells treated with compound YM (ACH-Y, Y without sugar moiety) compared with those of the no drug control (D)
(§3) Cell culture and drug-treatment.: ES2 cells were seeded in a T-25 flask with 4.5 million cells per flask for 24 hours. Cell culture was replaced with fresh medium with xanifolia-Y (Y) or DMSO no drug control (D) for 24 hours. Cells were then harvested for RNA isolation. Three experiments were done.
(§4) RNA extraction, labeling, hybridization, and data analysis. RNA was extracted from tumor cells using the Qiagen RNeasy Kit. RNA quality and quantity was checked by the Agilent BioAnalyzer and the NanoDrop® ND-1000 spectrophotometer respectively before further manipulation. The first and second cDNA strands were synthesized from 20 ng of total RNA using the Affymetrix T7 oligo(dT) primer protocol and kit for the two-cycle amplification. To produce amplified biotin-labeled-cRNA, the cDNA was […] by in vitro transcription using the MegaScript kit from Ambion. 15.0 μg of the labeled cRNA was fragmented and re-checked for concentration using the NanoDrop® ND-1000 spectrophotometer. A hybridization cocktail containing Affymetrix spike-in controls and fragmented labeled cRNA was loaded onto the Human U133 Plus 2.0 GeneChip® oligonucleotide array. The Affymetrix array (Affymetrix, Inc. Santa Clara, Calif.) is comprised of over 1,300,000 unique oligonucleotide features that represent greater than 38,500 well-substantiated human genes. The array was hybridized for 16 hours at 45° C. with rotation at 60 rpm then washed and stained with a strepavidin, R-phycoerythrin conjugate stain on the Affymetrix Fluidicis Station 450. Signal amplification was done using biotinylated antistreptavidin. The arrays were scanned using the GeneChip® 3000 confocal laser scanner with autoloader. The images were analyzed and quality control metrics recorded using Affymetrix GCOS software version 1.4. Lastly, the expression value for each gene was calculated using dChip PM-only model based or Plier algorithm.
(§5) Pairwise comparisons were made as follows: Treated vs. Control (Y vs. D), Modified Drug vs Control (YM/ACY-H vs. D) and Treated vs. Modified Drug (Y vs. YM/ACH-Y) Cel files analyzed using the Bioconductor package of R Statistical programming. Limma analysis generated a reasonable number of changing genes between the samples.
(§6) The raw data in the .CEL files were normalized by the GCRMA method (robust multi-array analysis). It is implemented in Bioconductor (http://www.bioconductor.org/). The raw signal intensity data were normalized, background corrected and summarized based on certain statistical models, and an expression value, in log 2-scale, is obtained per chip per probe set. Then the null hypothesis was tested that there's no significant changes in gene expression between the treatment pairs. This was done by LIMMA and is also implemented in Bioconductor. It uses empirical Bayes method to estimate the variance in gene expression. One comparison was made, namely, High Grade vs. Low Grade. The raw p-values were adjusted by the Benjamnin-Hochberg method for false discovery rate (FDR) control. All data sets contained a significant number of genes with a p-value less than 0.05, which is that the probability that a gene is NOT differential expressed (false positive) is 1:20.

[2] = tested on: Fibronectin secretion from skin SK-Mel-5 cells; assay: Fibronectin secretion (Western blot), SK-MEL-5 cells; settings: Homo sapiens
[3] = tested on: collagen expression in ES2 cells; assay: Microarray gene expression, Table 5; settings: for PLOD1 procollagen-lysine 1,2-oxoglutarate 5-dioxygenase 1, gene expression ratio to no drug control (D): probe 200827_at; for COL6A3 collagen, type VI, alpha 3, gene expression ratio to no drug control (D): probe 201438_at; for PLOD3 procollagen-lysine, 2-oxoglutarate 5-dioxygenase 3, gene expression ratio to no drug control (D): probe 202185_at; for COL1A1 collagen, type I, alpha 1, gene expression ratio to no drug control (D): probe 202311_s_at; for PCOLCE procollagen C-endopeptidase enhancer, gene expression ratio to no drug control (D): probe 202465_at; for P4HA1 procollagen-proline, 2-oxoglutarate 4-dioxygenase, alpha polypeptide I, gene expression ratio to no drug control (D): probe 207543_s_at; for COL18A1 collagen, type XVIII, alpha 1, gene expression ratio to no drug control (D): probe 209081_s_at; for COL4A2 collagen, type IV, alpha 2, gene expression ratio to no drug control (D): probe 211966_at; for COL4A1 collagen, type IV, alpha 1, gene expression ratio to no drug control (D): probe 211981_at; for COL6A1 collagen, type VI, alpha 1, gene expression ratio to no drug control (D): probe 212091_s_at; for COL4A5 collagen, type IV, alpha 5 (Alport syndrome), gene expression ratio to no drug control (D): probe 213110_s_at; for COL6A2 collagen, type VI, alpha 2, gene expression ratio to no drug control (D): probe 213290_at; for COL4A6 collagen, type IV, alpha 6, gene expression ratio to no drug control (D): probe 213992_at; for COL10A1 collagen, type X, alpha 1, gene expression ratio to no drug control (D): probe 217428_s_at; for COL12A1 collagen, type XII, alpha 1, gene expression ratio to no drug control (D): probe 231766_s_at; for CCBE1 collagen and calcium binding EGF domains 1, gene expression ratio to no drug control (D): probe 242324_x_at; for expression ratio to the control, collagen: span over probes of Table 5
Protocol: as §1, §2, §3, §4, §5, §6

[4] = tested on: CD54 expression in ES2 cells; assay: Microarray gene expression, Table 11; settings: probe 202638_s_at
Protocol: as §1, §2, §3
RNA extraction, labeling, hybridization, and data analysis. RNA was extracted from tumor cells using the Qiagen RNeasy Kit. RNA quality and quantity was checked by the Agilent BioAnalyzer and the NanoDrop® ND-1000 spectrophotometer respectively before further manipulation. […] The images were analyzed and quality control metrics recorded using Affymetrix GCOS software version 1.4. Lastly, the expression value for each gene was calculated using dChip PM-only model based or Plier algorithm.
Pairwise comparisons were made as follows: Treated vs. Control (Y vs. D), Modified Drug vs Control (YM/ACY-H vs. D) and Treated vs. Modified Drug (Y vs. YM/ACH-Y) Cel files analyzed using the Bioconductor package of R Statistical programming. […]

SMILES | HSPG2 heparan sulfate proteoglycan 2 (perlecan), gene expression ratio to no drug control (D) [1] [folds] | HS2ST1 heparan sulfate 2-O-sulfotransferase 1, gene expression ratio to no drug control (D) [1] [folds] | HPSE Heparanase, gene expression ratio to no drug control (D) [1] [folds] | P4HB procollagen-proline, 2-oxoglutarate 4-dioxygenase, beta polypeptide, gene expression ratio to no drug control (D) ([3]; probe 200654_at) [folds] | P4HB procollagen-proline, 2-oxoglutarate 4-dioxygenase, beta polypeptide, gene expression ratio to no drug control (D) ([3]; probe 200656_s_at) [folds] | PLOD1 procollagen-lysine 1,2-oxoglutarate 5-dioxygenase 1, gene expression ratio to no drug control (D) [3] [folds] | COL6A3 collagen, type VI, alpha 3, gene expression ratio to no drug control (D) [3] [folds] | PLOD3 procollagen-lysine, 2-oxoglutarate 5-dioxygenase 3, gene expression ratio to no drug control (D) [3] [folds] | COL1A1 collagen, type I, alpha 1, gene expression ratio to no drug control (D) [3] [folds] | PCOLCE procollagen C-endopeptidase enhancer, gene expression ratio to no drug control (D) [3] [folds] | PLOD2 procollagen-lysine, 2-oxoglutarate 5-dioxygenase 2, gene expression ratio to no drug control (D) ([3]; probe 202619_s_at) [folds] | PLOD2 procollagen-lysine, 2-oxoglutarate 5-dioxygenase 2, gene expression ratio to no drug control (D) ([3]; probe 202620_s_at) [folds] | P4HA2 procollagen-proline, 2-oxoglutarate 4-dioxygenase, alpha polypeptide II, gene expression ratio to no drug control (D) ([3]; probe 202733_at) [folds] | COL5A1 collagen, type V, alpha 1, gene expression ratio to no drug control (D) ([3]; probe 203325_s_at) [folds] | P4HA1 procollagen-proline, 2-oxoglutarate 4-dioxygenase, alpha polypeptide I, gene expression ratio to no drug control (D) [3] [folds] | COL13A1 collagen, type XIII, alpha 1, gene expression ratio to no drug control (D) ([3]; probe 208535_x_at) [folds] | COL18A1 collagen, type XVIII, alpha 1, gene expression ratio to no drug control (D) [3] [folds] | COL13A1 collagen, type XIII, alpha 1, gene expression ratio to no drug control (D) ([3]; probe 211343_s_at) [folds] | COL13A1 collagen, type XIII, alpha 1, gene expression ratio to no drug control (D) ([3]; probe 211809_x_at) [folds] | COL4A2 collagen, type IV, alpha 2, gene expression ratio to no drug control (D) [3] [folds] | also measured
C/C=C(/C)C(=O)O[C@H]1[C@H](OC(=O)/C(C)=C\C)[C@@]2(CO)C(CC1(C)C)C1=CCC3[C@@]4(C)CC[C@H](O)C(C)(C)C4CC[C@@]3(C)[C@]1(C)[C@@H](O)[C@H]2O (stereo partly shown) [ACH-Y] | −1.3 | −1.7 | −1.3 | −1.3 | −1.2 | −1.2 | −1.5 | −1.1 | −3.6 | −1.6 | −1.2 | −1.3 | −1.9 | −2.8 | −1.5 | −1.2 | −1.5 | −1.7 | −1.5 | −1.7 | inhibition at 30 µg/mL ([2]; 30 ug/ml): 21%; COL4A1 collagen, type IV, alpha 1, gene expression ratio to no drug control (D) [3]: −2.2 folds; COL6A1 collagen, type VI, alpha 1, gene expression ratio to no drug control (D) [3]: −1.9 folds; COL5A1 collagen, type V, alpha 1, gene expression ratio to no drug control (D) ([3]; probe 212489_at): −4.1 folds; COL4A5 collagen, type IV, alpha 5 (Alport syndrome), gene expression ratio to no drug control (D) [3]: −2.2 folds; COL6A2 collagen, type VI, alpha 2, gene expression ratio to no drug control (D) [3]: −1.5 folds; COL4A6 collagen, type IV, alpha 6, gene expression ratio to no drug control (D) [3]: −1.9 folds; COL10A1 collagen, type X, alpha 1, gene expression ratio to no drug control (D) [3]: −1.2 folds; COL5A2 collagen, type V, alpha 2, gene expression ratio to no drug control (D) ([3]; probe 221729_at): −1.8 folds; COL5A2 collagen, type V, alpha 2, gene expression ratio to no drug control (D) ([3]; probe 221730_at): −1.6 folds; COL12A1 collagen, type XII, alpha 1, gene expression ratio to no drug control (D) [3]: −2.4 folds; CCBE1 collagen and calcium binding EGF domains 1, gene expression ratio to no drug control (D) [3]: −1.8 folds; COL5A1 collagen, type V, alpha 1, gene expression ratio to no drug control (D) ([3]; probe 1556138_a_at): −2.8 folds; P4HA2 procollagen-proline, 2-oxoglutarate 4-dioxygenase, alpha polypeptide II, gene expression ratio to no drug control (D) ([3]; probe 1568611_at): −2.4 folds; expression ratio to the control, collagen [3]: −1.1 to −3.6 folds; ICAM1 intercellular adhesion molecule 1 (CD54), gene expression ratio to no drug control (D) [4]: 2.3 folds
C/C=C(/C)C(=O)O[C@H]1[C@H](OC(=O)/C(C)=C\C)[C@@]2(CO)C(CC1(C)C)C1=CCC3[C@@]4(C)CC[C@H](O[C@@H]5OC(C(=O)O)[C@@H](O)C(O[C@@H]6O[C@@H](CO)C(O)C6O)C5O[C@@H]5OC(CO)[C@H](O)C(O)C5O)C(C)(C)C4CC[C@@]3(C)[C@]1(C)[C@@H](O)[C@H]2O (stereo partly drawn) [Xanifolia-Y, 3-O-[β-D-galactopyranosyl (1→2)]-α-L-arabinofuranosy (1→3)-β-D-glucuronopyranosyl-21,22-O-diangeloyl-3β, 15α, 16α, 21β, 22α, 28-hexahydroxyolean-12-ene] | −2.4 | −1.3 | −1.4 | −1.6 | −1.8 | −1.7 | −2.4 | −1.3 | −1.6 | −1.3 | −1.7 | −1.4 | −1.4 | −1.7 | −2.0 | −1.4 | −1.7 | −1.9 | −2.0 | −1.8 | inhibition at 10 µg/mL ([2]; 10 ug/ml): 11%; inhibition at 20 µg/mL ([2]; 20 ug/ml): 40 to 57%; COL4A1 collagen, type IV, alpha 1, gene expression ratio to no drug control (D) [3]: −1.6 folds; COL6A1 collagen, type VI, alpha 1, gene expression ratio to no drug control (D) [3]: −1.6 folds; COL5A1 collagen, type V, alpha 1, gene expression ratio to no drug control (D) ([3]; probe 212489_at): −1.5 folds; COL4A5 collagen, type IV, alpha 5 (Alport syndrome), gene expression ratio to no drug control (D) [3]: −1.6 folds; COL6A2 collagen, type VI, alpha 2, gene expression ratio to no drug control (D) [3]: −1.6 folds; COL4A6 collagen, type IV, alpha 6, gene expression ratio to no drug control (D) [3]: −2.0 folds; COL10A1 collagen, type X, alpha 1, gene expression ratio to no drug control (D) [3]: −3.0 folds; COL5A2 collagen, type V, alpha 2, gene expression ratio to no drug control (D) ([3]; probe 221729_at): −1.3 folds; COL5A2 collagen, type V, alpha 2, gene expression ratio to no drug control (D) ([3]; probe 221730_at): −1.6 folds; COL12A1 collagen, type XII, alpha 1, gene expression ratio to no drug control (D) [3]: −2.8 folds; CCBE1 collagen and calcium binding EGF domains 1, gene expression ratio to no drug control (D) [3]: −1.3 folds; COL5A1 collagen, type V, alpha 1, gene expression ratio to no drug control (D) ([3]; probe 1556138_a_at): −2.2 folds; P4HA2 procollagen-proline, 2-oxoglutarate 4-dioxygenase, alpha polypeptide II, gene expression ratio to no drug control (D) ([3]; probe 1568611_at): −1.3 folds; expression ratio to the control, collagen [3]: −1.3 to −3.0 folds; ICAM1 intercellular adhesion molecule 1 (CD54), gene expression ratio to no drug control (D) [4]: 1.6 folds
